The source of these data is patent US20230287003A1, “BCL6 INHIBITORS” (Cancer Research Technology Limited, priority 2018, published 2023).

Molecules are shown by their SMILES.

Test [1] addresses human BCL6 BTB domain (Trx-6×His-BCL6) / BCOR-AF633 peptide (Homo sapiens (Human), UniProt P41182). In words: HTRF assay. Conditions: 1 nM Trx-6×His-BCL6, 300 nM BCOR-AF633 peptide, 2 hours incubation. Format: binding.
Experimental: The % inhibition at each concentration was calculated by normalising FRET ratio to the appropriate high (DMSO with all reagents) and low (DMSO without BCL6) controls.
In test [2] the target is BCL6-NCOR2(SMRT) corepressor protein-protein interaction (Homo sapiens (Human), UniProt P41182). Briefly: NanoBRET cell assay. Conditions: for IC50: read-out: NanoBRET cell avg pIC50 (converted). Type of test: cell-based. From the text: At 20 hr post-transfection, cells were collected, washed with PBS, and exchanged into media containing phenol red-free OptiMEM+4% FBS (Life Technology).
In general terms: BRET reads energy transfer from a luciferase to a nearby fluorophore.

For `COCC1(C)CCOc2c(c3cc(Nc4ccnc(Cl)c4C#N)ccc3n(C)c2=O)N1` (stereo not shown) [Example 1g, 2-chloro-4-((2-(methoxymethyl)-2,7-dimethyl-6-oxo-1,2,3,4,6,7-hexahydro-[1,4]oxazepino[2,3-c]quinolin-10-yl)amino)nicotinonitrile], in test [1], the “HTRF avg pIC50 (1 nM)” value is on record as 6.30. The IC50 in test [2] is 2.51 µM.
The corresponding values for `Cn1c(=O)c2c(c3cc(Nc4nc(-n5ccc(C(F)(F)F)n5)ncc4Cl)ccc31)N[C@@H](C1CC1)CCO2` [Example 5a, (R)-10-((5-chloro-2-(3-(trifluoromethyl)-1H-pyrazol-1-yl)pyrimidin-4-yl)amino)-2-cyclopropyl-7-methyl-1,2,3,4-tetrahydro-[1,4]oxazepino[2,3-c]quinolin-6(7H)-one] are 7.03 and 0.617 µM.
For `CN1CC2CCC(C1)N2c1ncc(Cl)c(Nc2ccc3c(c2)c2c(c(=O)n3C)OCC[C@H](C3CC3)N2)n1` [Example 12i, (R)-10-((5-chloro-2-(3-methyl-3,8-diazabicyclo[3.2.1]octan-8-yl)pyrimidin-4-yl)amino)-2-cyclopropyl-7-methyl-1,2,3,4-tetrahydro-[1,4]oxazepino[2,3-c]quinolin-6(7H)-one], the “HTRF avg pIC50 (1 nM)” value in test [1] turned out to be 7.81. Also, the IC50 in test [2] was 0.148 µM.
The corresponding values for `Cn1c(=O)c2c(c3cc(Nc4nc(N5C6COCC5CC(O)C6)ncc4Cl)ccc31)N[C@@H](C1CC1)CCO2` (stereo partly drawn) [Example 5n, (R)-10-((5-chloro-2-((1R,5S,7S)-7-hydroxy-3-oxa-9-azabicyclo[3.3.1]nonan-9-yl)pyrimidin-4-yl)amino)-2-cyclopropyl-7-methyl-1,2,3,4-tetrahydro-[1,4]oxazepino[2,3-c]quinolin-6(7H)-one] are 7.97 and 0.0363 µM.
Taken in the same sequence, the figures for `Cn1c(=O)c2c(c3cc(Nc4ccnc(Cl)c4C#N)ccc31)NC(C)(C)CCO2` [Example 1f, 2-chloro-4-((2,2,7-trimethyl-6-oxo-1,2,3,4,6,7-hexahydro-[1,4]oxazepino[2,3-c]quinolin-10-yl)amino)nicotinonitrile] were 6.24 and 5.13 µM.
Taken in the same sequence, the figures for `C[C@@H]1CN(c2ncc(Cl)c(Nc3ccc4c(c3)c3c(c(=O)n4C)OCC[C@H](C)N3)n2)C[C@H](C)O1` [Example 5g, (S)-10-((5-chloro-2-((2S,6R)-2,6-dimethylmorpholino)pyrimidin-4-yl)amino)-2,7-dimethyl-1,2,3,4-tetrahydro-[1,4]oxazepino[2,3-c]quinolin-6(7H)-one] were 6.88 and 2.04 µM.
For the compound `Cn1c(=O)c2c(c3cc(Nc4nc(N5CC6CCC(C5)O6)ncc4Cl)ccc31)N[C@@H](C1CC1)C(F)(F)CO2` [Example 12u, (S)-10-((2-(8-oxa-3-azabicyclo[3.2.1]octan-3-yl)-5-chloropyrimidin-4-yl)amino)-2-cyclopropyl-3,3-difluoro-7-methyl-1,2,3,4-tetrahydro-[1,4]oxazepino[2,3-c]quinolin-6(7H)-one], the IC50 in test [1] (HTRF avg pIC50 (1 nM)) is 0.00263 µM. Also, the “NanoBRET cell avg pIC50” value in test [2] (HEK293T cells co-transfected with BCL6-nanoLuc and NCOR2-HaloTag, 6 hr incubation) came out at 7.83.
For `Cn1c(=O)c2c(c3cc(Nc4cc(C(=O)N5CC(C(F)(F)F)C5)nc(Cl)c4C#N)ccc31)N[C@@H](C1CC1)CCO2` [Example 3b, (R)-2-chloro-4-((2-cyclopropyl-7-methyl-6-oxo-1,2,3,4,6,7-hexahydro-[1,4]oxazepino[2,3-c]quinolin-10-yl)amino)-6-(3-(trifluoromethyl)azetidine-1-carbonyl)nicotinonitrile], the “HTRF avg pIC50 (1 nM)” value in test [1] was determined as 7.32. Also, the IC50 in test [2] was 0.646 µM.
The corresponding values for `Cn1c(=O)c2c(c3cc(Nc4nc(N5CCC(F)(F)CC5)ncc4Cl)ccc31)NC(C1CC1)COC2=O` (stereo not shown) [Example 8o, 10-((5-chloro-2-(4,4-difluoropiperidin-1-yl)pyrimidin-4-yl)amino)-2-cyclopropyl-7-methyl-2,3-dihydro-[1,4]oxazepino[6,5-c]quinoline-5,6(1H,7H)-dione] are 6.43 and 9.33 µM.
In the case of `CN(C)C(=O)C1CCN(c2ncc(Cl)c(Nc3ccc4c(c3)c3c(c(=O)n4C)C(=O)OC[C@H](C4CC4)N3)n2)CC1` [Example 8m, (S)-1-(5-chloro-4-((2-cyclopropyl-7-methyl-5,6-dioxo-1,2,3,5,6,7-hexahydro-[1,4]oxazepino[6,5-c]quinolin-10-yl)amino)pyrimidin-2-yl)-N,N-dimethylpiperidine-4-carboxamide], in test [1], the “HTRF avg pIC50 (1 nM)” value worked out at 6.28. The IC50 in test [2] is 31.6 µM.
As to `C[C@@H]1CN(c2ncc(Cl)c(Nc3ccc4c(c3)c3c(c(=O)n4C)C(=O)OC[C@H](C)N3)n2)C[C@H](C)O1` [Example 8a, (S)-10-((5-chloro-2-((2S,6R)-2,6-dimethylmorpholino)pyrimidin-4-yl)amino)-2,7-dimethyl-2,3-dihydro-[1,4]oxazepino[6,5-c]quinoline-5,6(1H,7H)-dione], the “HTRF avg pIC50 (1 nM)” value in test [1] was determined as 6.97. Also, in test [2], the IC50 was 9.55 µM.
`C[C@H]1CCOc2c(c3cc(Nc4nc(N5CCC(C(=O)N(C)C)CC5)ncc4Cl)ccc3n(C)c2=O)N1` [Example 5d, (S)-1-(5-chloro-4-((2,7-dimethyl-6-oxo-1,2,3,4,6,7-hexahydro-[1,4]oxazepino[2,3-c]quinolin-10-yl)amino)pyrimidin-2-yl)-N,N-dimethylpiperidine-4-carboxamide]: the “HTRF avg pIC50 (1 nM)” value in test [1] amounted to 6.83. Moreover, in test [2], the IC50 is 1.41 µM.
The corresponding values for `C[C@H]1COC(=O)c2c(c3cc(Nc4nc(N5C6CCCC5CC6)ncc4Cl)ccc3n(C)c2=O)N1` [Example 8b, (2S)-10-((2-(8-azabicyclo[3.2.1]octan-8-yl)-5-chloropyrimidin-4-yl)amino)-2,7-dimethyl-2,3-dihydro-[1,4]oxazepino[6,5-c]quinoline-5,6(1H,7H)-dione] are 6.85 and 2.19 µM.
Taken in the same sequence, the figures for `CN1CCN(c2ncc(Cl)c(Nc3ccc4c(c3)c3c(c(=O)n4C)OCC[C@H](C4CC4)N3)n2)CC1=O` [Example 12b, (R)-10-((5-chloro-2-(4-methyl-3-oxopiperazin-1-yl)pyrimidin-4-yl)amino)-2-cyclopropyl-7-methyl-1,2,3,4-tetrahydro-[1,4]oxazepino[2,3-c]quinolin-6(7H)-one] were 7.80 and 0.0603 µM.
The corresponding values for `Cn1c(=O)c2c(c3cc(Nc4nc(N5C6CCC5CS(=O)(=O)C6)ncc4Cl)ccc31)N[C@@H](C1CC1)CCO2` [Example 12j, (R)-10-((5-chloro-2-(3,3-dioxido-3-thia-8-azabicyclo[3.2.1]octan-8-yl)pyrimidin-4-yl)amino)-2-cyclopropyl-7-methyl-1,2,3,4-tetrahydro-[1,4]oxazepino[2,3-c]quinolin-6(7H)-one] are 7.78 and 0.234 µM.
`O=c1c2c(c3cc(Nc4nc(N5C6CCC5COC6)ncc4Cl)ccc3n1CC1CC1)N[C@@H](C1CC1)CCO2` [Example 5r, (R)-10-((2-(3-oxa-8-azabicyclo[3.2.1]octan-8-yl)-5-chloropyrimidin-4-yl)amino)-2-cyclopropyl-7-(cyclopropylmethyl)-1,2,3,4-tetrahydro-[1,4]oxazepino[2,3-c]quinolin-6(7H)-one]: in test [1], the “HTRF avg pIC50 (1 nM)” value is listed as 7.41. For the same compound, the IC50 in test [2] is 0.0437 µM.
On to `C[C@H]1COC(=O)c2c(c3cc(Nc4cc(OC5CCOCC5)ncc4Cl)ccc3n(C)c2=O)N1` [Example 7a], for which the “HTRF avg pIC50 (1 nM)” value in test [1] is on record as 6.72. Further, in test [2], the IC50 is 19.1 µM.
